From patent US8367677B2, “Non-glycosylated/non-glycosidic/non-peptidic small molecule PSGL-1 mimetics for the treatment of inflammatory disorders” (Revotar Biopharmaceuticals AG, priority 2004, dated 2013)

How the values were obtained:
[1] = biological target: T1, human P-Selectin-IgG-chimera (Homo sapiens, UniProt P16109); assay: Sialyl Lewis x Tyrosine Sulfate Assay (sLex TSA), P-selectin; type: binding; conditions: for inhibition at 100 µM / P-Selectin [% Inhib.]: compound at 100 μM; for inhibition at 100 µM: read-out: P-Selectin [% Inhib.]
T1 sequence (P16109 42-771 limits assumed): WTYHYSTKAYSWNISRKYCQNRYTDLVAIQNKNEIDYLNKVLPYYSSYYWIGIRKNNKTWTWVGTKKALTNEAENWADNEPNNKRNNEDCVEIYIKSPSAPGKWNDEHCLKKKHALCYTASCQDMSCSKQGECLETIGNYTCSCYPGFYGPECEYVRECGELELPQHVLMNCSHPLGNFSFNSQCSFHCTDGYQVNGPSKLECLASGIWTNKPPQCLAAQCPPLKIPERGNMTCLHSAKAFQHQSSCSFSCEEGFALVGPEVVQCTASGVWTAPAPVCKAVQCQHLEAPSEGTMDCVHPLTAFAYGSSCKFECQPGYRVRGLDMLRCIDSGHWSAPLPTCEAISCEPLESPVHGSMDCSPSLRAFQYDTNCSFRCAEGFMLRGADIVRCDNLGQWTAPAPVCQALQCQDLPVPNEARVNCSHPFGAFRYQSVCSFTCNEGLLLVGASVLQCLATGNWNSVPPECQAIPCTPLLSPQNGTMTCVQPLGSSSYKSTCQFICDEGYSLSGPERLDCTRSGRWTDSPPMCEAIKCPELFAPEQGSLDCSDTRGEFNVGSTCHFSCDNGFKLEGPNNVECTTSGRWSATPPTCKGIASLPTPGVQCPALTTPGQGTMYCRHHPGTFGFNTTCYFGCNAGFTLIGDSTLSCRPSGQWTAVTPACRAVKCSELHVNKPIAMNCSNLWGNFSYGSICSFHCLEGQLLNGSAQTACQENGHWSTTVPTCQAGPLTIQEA
Protocol: (§1) Compounds of the present invention are assayed on a molecular level for their ability to inhibit the binding of P-, L-, or E-selectin chimeric molecules to sLe^x and tyrosinesulfate residues linked to a polymeric matrix as a PSGL-1 substitute.
(§2) Microtiter plates are coated overnight in carbonate buffer pH9.6 with goat anti human Fc mAB (10 μg/ml). After washing in assay buffer (25 mM 4-(2-hydroxyethyl)-1-piperazineethanesulfonic acid (HEPES), 150 mM NaCl, 1 mM CaCl2 pH7.4) and blocking (3% bovine serum albumin (BSA) in assay buffer) plates are incubated for 2 h at 37° C. with human P-Selectin-IgG-chimera (0.61 nM respectively 150 ng/mL) or human L-Selectin-IgG-chimera (0.61 nM respectively 89 ng/mL) or human E-Selectin-IgG-chimera (0.61 nM respectively 131 ng/mL). 5 μl of sLe^x-tyrosine sulfate polyacrylamide (1 mg/ml) carrying 15% sLe^x, 10% Tyrosine-sulfate and 5% biotin is complexed with 20 μl Streptavidin-Peroxidase solution (1 mg/ml) and 25 μl assay buffer without CaCl2. For use in the assay, the ligand complex is diluted 1:10000 in assay buffer and further diluted 1:1 with varying amounts of compounds in assay buffer incl. 2% DMSO. This mixture is added to the wells precoated with E- or P-selectin. After incubation for 2 h at 37° C., wells are washed for six times with in assay buffer incl. 0.005% Polyoxyethylenesorbitan monolaurate (TWEEN 20), developed for 10-15 min with 20 μl 3,3′,5,5′-tetramethylbenzidine (TMB)/H2O2 substrate solution and stopped with 20 μl […]. Bound sLe^x-Tyrosine sulfate ligand complex is determined by measuring optical density at 450 nm vs. 620 nm in a Fusion alpha-FP reader (sold from Packard Bioscience, Dreieich, Germany).

[2] = biological target: T2, human E-Selectin-IgG-chimera (Homo sapiens, UniProt P16581); assay: Sialyl Lewis x Tyrosine Sulfate Assay (sLex TSA), E-selectin; type: binding; conditions: for inhibition at 100 µM / E-Selectin [% Inhib.]: compound at 100 μM; for inhibition at 100 µM: read-out: E-Selectin [% Inhib.]
T2 construct: fused on or other part: human IgG Fc part, a tag and dimerising handle that is captured by the goat anti-human Fc antibody on the plate
T2 sequence (P16581 22-175 limits assumed): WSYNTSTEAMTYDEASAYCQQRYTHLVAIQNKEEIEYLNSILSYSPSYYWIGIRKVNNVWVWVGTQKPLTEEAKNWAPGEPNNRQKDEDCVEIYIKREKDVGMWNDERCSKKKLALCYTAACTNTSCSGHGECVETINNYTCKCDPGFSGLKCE
Protocol: as §1, §2

[3] = biological target: T3, human L-Selectin-IgG-chimera (Homo sapiens, UniProt P14151); assay: Sialyl Lewis x Tyrosine Sulfate Assay (sLex TSA), L-selectin; type: binding; conditions: for inhibition at 100 µM / L-Selectin [% Inhib.]: compound at 100 μM; for inhibition at 100 µM: read-out: L-Selectin [% Inhib.]
T3 construct: fused on or other part: human IgG Fc part, a tag and dimerising handle that is captured by the goat anti-human Fc antibody on the plate
T3 sequence (P14151 39-318 limits assumed): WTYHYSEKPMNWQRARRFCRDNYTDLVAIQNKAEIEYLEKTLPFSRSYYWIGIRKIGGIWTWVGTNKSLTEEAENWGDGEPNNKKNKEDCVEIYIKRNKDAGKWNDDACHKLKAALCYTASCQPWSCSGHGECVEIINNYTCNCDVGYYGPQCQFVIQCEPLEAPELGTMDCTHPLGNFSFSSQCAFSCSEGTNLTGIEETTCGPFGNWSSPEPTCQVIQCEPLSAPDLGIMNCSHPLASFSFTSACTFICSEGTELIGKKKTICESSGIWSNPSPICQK
Protocol: as §1, §2

[4] = Parallel Artificial Membrane Permeation Assay (PAMPA); type: in vitro ADME; conditions: 16 hours, room temperature
Protocol: The test compounds are dissolved at 10 mM in DMSO and diluted to 500 μM with PBS pH 7.4 or pH 4.0, respectively resulting in ‘donor solutions’. For use as an artificial membrane, a 1% solution of lecithin (w/v) in dodecane is prepared and sonicated. Then, 5 μl of the lecithin/dodecane mixture are carefully pipetted into each donor plate well. Immediately after the application of the artificial membrane, 150 μl of drug containing donor solutions are added to each well of the donor plate. Each well of the acceptor plate is filled with 300 μl buffer (PBS with 5% DMSO at pH 7.4 or pH 4.0, respectively) and the drug-filled donor plate is placed onto the acceptor plate, making sure the membrane is in contact with the buffer. After replacement of the lid, the assembled plates are transferred into a sealed box equipped with a moistured towel and incubated at room temperature for 16 hours. Then, the wells of the acceptor plate are analyzed with LC/MS.

inhibition at 100 µM [1]	inhibition at 100 µM [2]	inhibition at 100 µM [3]	[% flux] at pH 4.0 ([4]; pH 4.0, 500 μM donor)	[% flux] at pH 7.4 ([4]; pH 7.4, 500 μM donor)	IC50 [1]	IC50 [2]	IC50 [3]	P-Selectin [% Inhib.] [1]	E-Selectin [% Inhib.] [2]	L-Selectin [% Inhib.] [3]	Compound
84%	54%	88%	–	–	–	–	–	–	–	–	COC(=O)Cc1cccc(-c2ccccc2NC(=O)CCc2cc(O)c(O)c(O)c2)c1 [Compound 73, {2′-[3-(3,4,5-Trihydroxy-phenyl)-propionylamino]-biphenyl-3-yl}-acetic acid methyl ester]
68%	20%	63%	0%	17%	–	–	–	–	–	–	COC(=O)c1ccccc1NC(=O)Cc1ccc(O)c(O)c1O [Compound 93]
78%	79%	76%	–	–	4.2 µM	4.9 µM	8.7 µM	–	–	–	O=C(O)Cc1cccc(-c2ccccc2NC(=O)Cc2cc(O)c(O)c(O)c2)c1 [Compound 94]
–	–	–	–	–	–	–	–	90%	89%	81%	O=C(O)Cc1cccc(-c2ccccc2NC(=O)CCc2cc(O)c(O)c(O)c2)c1 [Compound 95]
86%	63%	73%	–	–	1.1 µM	0.8 µM	1.4 µM	–	–	–	O=C(Cc1cc(O)c(O)c(O)c1)Nc1cccc(C(=O)O)c1 [Compound 96]
57%	58%	52%	–	–	2.1 µM	1 µM	–	–	–	–	O=C(O)Cc1cccc(NC(=O)Cc2cc(O)c(O)c(O)c2)c1 [Compound 98]
–	–	–	–	–	–	–	–	40%	21%	27%	O=C(Cc1ccc(O)c(O)c1O)NCC1CCC(C(=O)O)CC1 (stereo not drawn) [Compound 100]
–	–	–	–	–	–	–	–	87%	68%	81%	O=C(O)Cc1ccc(-c2ccccc2NC(=O)Cc2cc(O)c(O)c(O)c2)s1 [Compound 103]
67%	67%	62%	–	–	2.8 µM	3 µM	3.3 µM	–	–	–	O=C(Cc1cc(O)c(O)c(O)c1)NCC1CCC(C(=O)O)CC1 (stereo not drawn) [Compound 104]
86%	90%	84%	–	–	3.4 µM	3.1 µM	5.7 µM	–	–	–	O=C(CCc1cc(O)c(O)c(O)c1)NCC1CCC(C(=O)O)CC1 (stereo not drawn) [Compound 105]
–	–	–	–	–	–	–	–	94%	52%	85%	O=C(O)Cc1ccc(-c2ccccc2NC(=O)CCc2ccc(O)c(O)c2O)s1 [Compound 106]
–	–	–	–	–	–	–	–	87%	53%	75%	Cc1ccc(C(=O)O)cc1NC(=O)Cc1cc(O)c(O)c(O)c1 [Compound 107]
86%	85%	84%	–	–	1.7 µM	1.3 µM	1.8 µM	–	–	–	Cc1ccc(C(=O)O)cc1NC(=O)CCc1cc(O)c(O)c(O)c1 [Compound 108]
73%	82%	72%	–	–	–	2.3 µM	–	–	–	–	O=C(O)Cc1cccc(NC(=O)CCc2cc(O)c(O)c(O)c2)c1 [Compound 109]
–	–	–	–	–	–	–	–	96%	96%	92%	O=C(CCc1cc(O)c(O)c(O)c1)Nc1cccc(C(=O)O)c1 [Compound 110]
99%	46%	97%	–	–	2.1 µM	0.6 µM	7 µM	–	–	–	O=C(Cc1ccc(O)c(O)c1O)Nc1cccc(C(=O)O)c1 [Compound 111]
97%	38%	83%	–	–	7.4 µM	–	16 µM	–	–	–	O=C(O)Cc1cccc(NC(=O)Cc2ccc(O)c(O)c2O)c1 [Compound 112]
–	–	–	–	–	–	–	–	73%	42%	48%	Cc1c(NC(=O)Cc2ccc(O)c(O)c2O)cccc1C(=O)O [Compound 113]
–	–	–	–	–	–	–	–	99%	38%	95%	O=C(CCc1ccc(O)c(O)c1O)Nc1cccc(C(=O)O)c1 [Compound 114]
–	–	–	–	–	–	–	–	89%	–	88%	Cc1c(NC(=O)CCc2ccc(O)c(O)c2O)cccc1C(=O)O [Compound 115]
88%	92%	87%	–	–	13 µM	7.3 µM	15 µM	–	–	–	Cc1ccc(C(=O)O)cc1NC(=O)CCc1ccc(O)c(O)c1O [Compound 116]
86%	94%	89%	–	–	21.7 µM	8.4 µM	109 µM	–	–	–	Cc1c(NC(=O)CCc2cc(O)c(O)c(O)c2)cccc1C(=O)O [Compound 117]
–	–	–	–	–	–	–	–	82%	14%	55%	O=C(Cc1ccc(O)c(O)c1O)NCc1ccc(C(=O)O)cc1 [Compound 119]
